The subject of assay [1] is human PBMCs of individuals naturally exposed to C. burnetii. The class given is cell-based.
The test system of assay [2] is splenocytes from tgHLA-DR3 mice. The conditions noted are these: in vivo; for # of mice responding: mouse.
In a further assay the target is T1, DRB1*0301 (Homo sapiens, UniProt P01903+P01911, A100K/A102G/A103R/A169T/F55Y/I96L/K41T/L162R/M171V/P40S/Q125H/Q178H/Q39Y/R42S/S66N/T106N/T262R/W38E/Y61H).
T1 construct: purchased Benaroya Institute, Seattle, Wash
Briefly: HLA class II competition binding assay, DRB1*0301. The conditions noted are these: peptides immunogenic in tgHLA-DR3 mice.

The record followed here is patent US11690902B2 (priority 2018, dated 2023).

“Also recorded” adds a separate entry of the source.

In the case of PAKINLARTYIAMED [p34], in assay [1], the “Recognition of HLA class II peptide by any subject” value (from here on “Recognition of HLA class II peptide”) is on record as “not recognized by any subject”.

In the case of ISLLVFKNSHRVQLWAK [p28], in assay [1], the “Donors recognizing peptides recognized solely by past asymptomatic subjects” value is given as 1/33 and the “Human immunoreactive in at least one IGRA+ donor (category)” value (from here on “Human immunoreactive”) is on record as “at least one IGRA + donor”. In assay [2], the “SFU, Mouse 1/3” value stood at 63; the “SFU, Mouse 2/3” value was 54; the “SFU, Mouse 3/3” value came out at 41; the “SI (stimulation index), Mouse 1/3” value is 3.76. For the same sequence, in assay [2], the “SI (stimulation index), Mouse 2/3” value was determined as 3.79; the “SI (stimulation index), Mouse 3/3” value is on record as 2.63; the “# of mice responding” value was found to be 2.

As to VFNITLQKVMAPELPVL [p35], the “Recognition of HLA class II peptide” value in assay [1] is given as “not recognized by any subject”.

With KDDILEAVANMSVMDV [p3], in assay [1], the “Donors recognizing peptides recognized only within group C” value is on record as “single” and the “Human immunoreactive” value was “at least one IGRA + donor”.

Take IARYFMVNISQLIGEE [p21]: in assay [1], the “Number of IGRA+ subjects recognizing the peptide” value is recorded as 8/56; the “Number of IGRA− subjects recognizing the peptide” value is given as 3/21; the “Proportion of IGRA+ donors with IFNγ recall response to the peptide, SI cutoff of 2” value was determined as 14.3%; the “Recall response frequency in IGRA− donors” value was found to be 14.3%.

On to MMEHLQNITNLVSTGRQGA [p15], for which the “Highly antigenic / highly reactive peptide in the human cohort” value in assay [1] is “highly antigenic”.

Regarding GVAYTYNRANAGLPTNK [p45], in assay [1], the “Highly antigenic / highly reactive peptide in the human cohort” value is given as “highly antigenic”; the “Number of IGRA+ subjects recognizing the peptide” value is reported as 7/56; the “Proportion of IGRA+ donors with IFNγ recall response to the peptide, SI cutoff of 2” value amounted to 12.5%.

Consider NAGIIRNKLKIQATIN [p43], for which the “Donors recognizing peptides recognized solely by past asymptomatic subjects” value in assay [1] is recorded as 3/33. Moreover, in assay [2], the “SFU, Mouse 1/3” value is reported as 135; the “SFU, Mouse 2/3” value was 65; the “SFU, Mouse 3/3” value came to 116; the “SI (stimulation index), Mouse 1/3” value worked out at 4.88. In assay [2], the “SI (stimulation index), Mouse 2/3” value is 3.04; the “SI (stimulation index), Mouse 3/3” value worked out at 4.48; the “# of mice responding” value amounted to 3.

Consider EHTIVVNASASEAAALQ [p10], for which, in assay [1], the “Donors recognizing peptides recognized only within group C” value was “multiple donors” and the “Human immunoreactive” value was “at least one IGRA + donor”. Moreover, in assay [2], the “SFU, Mouse 1/3” value turned out to be 256; the “SFU, Mouse 2/3” value is reported as 82; the “SFU, Mouse 3/3” value amounted to 43; the “SI (stimulation index), Mouse 1/3” value came to 5.80. Besides, in assay [2], the “SI (stimulation index), Mouse 2/3” value was 4.51; the “SI (stimulation index), Mouse 3/3” value is 2.00; the “# of mice responding” value worked out at 2.

With QNAFQLQETIVSTEN [p40], the “Recognition of HLA class II peptide” value in assay [1] was “not recognized by any subject”.

As for LSSIIHKLTSFSKTEA [p38], the “Highly antigenic / highly reactive peptide in the human cohort” value in assay [1] is “highly antigenic”.

As for SHEVLHAMSRGVEVLA [p6], in assay [1], the “Donors recognizing peptides recognized only within group C” value is “multiple donors”.

Consider SEQITLQTAEKVGLNVA [p1], for which, in assay [1], the “Donors recognizing peptides recognized only within group C” value was “multiple donors” and the “Human immunoreactive” value is reported as “at least one IGRA + donor”.

Take SRAFLTANKNKPGVKT [p7]: the “Human immunoreactive” value in assay [1] is listed as “at least one IGRA + donor”.

Regarding TPTFVIGNKALTKFGF [p2], the “Highly antigenic / highly reactive peptide in the human cohort” value in assay [1] is given as “highly reactive”. In assay [2], the “SFU, Mouse 1/3” value was determined as 120; the “SFU, Mouse 2/3” value is on record as 141; the “SFU, Mouse 3/3” value worked out at 18; the “SI (stimulation index), Mouse 1/3” value is recorded as 6.63. Moreover, in assay [2], the “SI (stimulation index), Mouse 2/3” value is listed as 8.28; the “SI (stimulation index), Mouse 3/3” value is recorded as 1.53; the “# of mice responding” value was 2.

Regarding LKPFHFISSPTRDLQIA [p16], in assay [1], the “Highly antigenic / highly reactive peptide in the human cohort” value is listed as “highly reactive” and the “Human immunoreactive” value was “at least one IGRA + donor”. Also, in assay [2], the “SFU, Mouse 1/3” value turned out to be 180; the “SFU, Mouse 2/3” value stood at 27; the “SFU, Mouse 3/3” value stood at 19; the “SI (stimulation index), Mouse 1/3” value was 8.94. Besides, in assay [2], the “SI (stimulation index), Mouse 2/3” value is given as 2.05; the “SI (stimulation index), Mouse 3/3” value came out at 1.94; the “# of mice responding” value is 1.

In the case of DQRITQLKNLNSNNSDSSNDN [p49], the “Recognition of HLA class II peptide” value in assay [1] is recorded as “not recognized by any subject”.

With LAQYRELEAFSQFAS [p5], the “Human immunoreactive” value in assay [1] is listed as “at least one IGRA + donor”.

Take VARVSRLKDNFVVLEISKGTEITVQ [p29]: in assay [1], the “Donors recognizing peptides recognized solely by past asymptomatic subjects” value is listed as 1/33 and the “Human immunoreactive” value is on record as “at least one IGRA + donor”.

Regarding AENVLIIHNKTLAHRYLA [p31], the “Highly antigenic / highly reactive peptide in the human cohort” value in assay [1] is reported as “highly reactive”. For the same sequence, in assay [2], the “SFU, Mouse 1/3” value is 0; the “SFU, Mouse 2/3” value came out at 14; the “SFU, Mouse 3/3” value is 84; the “SI (stimulation index), Mouse 1/3” value worked out at 0.88. Moreover, in assay [2], the “SI (stimulation index), Mouse 2/3” value turned out to be 1.72; the “SI (stimulation index), Mouse 3/3” value is 4.32; the “# of mice responding” value stood at 1.

As to EAVYKGFTPLKAEDIAEA [p19], in assay [1], the “Highly antigenic / highly reactive peptide in the human cohort” value is listed as “highly antigenic”.

As for VAKLRGDLSSIIHKL [p37], in assay [1], the “Highly antigenic / highly reactive peptide in the human cohort” value is recorded as “highly antigenic”.

On to IDHLQQMTRQQVAMQTHK [p36], for which, in assay [1], the “Human immunoreactive” value was “at least one IGRA + donor”. Moreover, in the assay with DRB1*0301, the “Binding to DRB1*0301 in vitro” value is listed as “all except one (p36) also showed binding”. Further, in assay [2], the “SFU, Mouse 1/3” value was 52; the “SFU, Mouse 2/3” value is 55; the “SFU, Mouse 3/3” value came out at 0; the “SI (stimulation index), Mouse 1/3” value is 3.44. Moreover, in assay [2], the “SI (stimulation index), Mouse 2/3” value is on record as 3.86; the “SI (stimulation index), Mouse 3/3” value is 0.86; the “# of mice responding” value is 2.

For FTFRSQDSRRVQEW [p13], in assay [1], the “Donors recognizing peptides recognized solely by past asymptomatic subjects” value is reported as 1/33 and the “Human immunoreactive” value is recorded as “at least one IGRA + donor”.

Regarding RLGFMSFFTKAVVEALKRF [p22], in assay [1], the “Highly antigenic / highly reactive peptide in the human cohort” value is “highly reactive; also recorded: highly antigenic”.

Turning to VPGYRNASSKRFVAP [p46], the “Highly antigenic / highly reactive peptide in the human cohort” value in assay [1] is “highly antigenic”.

PITKKQLKTMSNYEVIAK [p11]: in assay [1], the “Recognition of HLA class II peptide” value was “not recognized by any subject”.

With REAVLFLVTIKELLEDP [p23], in assay [1], the “Highly antigenic / highly reactive peptide in the human cohort” value is reported as “highly antigenic”. In assay [2], the “SFU, Mouse 1/3” value is given as 69; the “SFU, Mouse 2/3” value is 21; the “SFU, Mouse 3/3” value turned out to be 63; the “SI (stimulation index), Mouse 1/3” value is on record as 2.30. In assay [2], the “SI (stimulation index), Mouse 2/3” value is reported as 1.89; the “SI (stimulation index), Mouse 3/3” value amounted to 2.47; the “# of mice responding” value amounted to 2.

With QGHIINIGSISSHQV [p18], the “Highly antigenic / highly reactive peptide in the human cohort” value in assay [1] is listed as “highly antigenic”.

LKDVVALRNQAQTAK [p41]: in assay [1], the “Human immunoreactive” value was “at least one IGRA + donor”. Also, in assay [2], the “SFU, Mouse 1/3” value turned out to be 87; the “SFU, Mouse 2/3” value amounted to 30; the “SFU, Mouse 3/3” value is reported as 0; the “SI (stimulation index), Mouse 1/3” value is 5.06. Besides, in assay [2], the “SI (stimulation index), Mouse 2/3” value was 2.55; the “SI (stimulation index), Mouse 3/3” value turned out to be 0.98; the “# of mice responding” value is recorded as 1.

As to IKGWQEALTRMKPGAIWEI [p8], in assay [1], the “Human immunoreactive” value was “at least one IGRA + donor”.

For GLSWLTILKKRNNYRDSFN [p44], in assay [1], the “Human immunoreactive” value is given as “at least one IGRA + donor”.

As to AIYFIGWYANLAHIKLGIS [p9], the “Recognition of HLA class II peptide” value in assay [1] is recorded as “not recognized by any subject”.

On to QELEVAQNKAMSDFM [p39], for which the “Human immunoreactive” value in assay [1] is “at least one IGRA + donor”.

On to DHAYKLAVSSTKSMT [p42], for which the “Donors recognizing peptides recognized solely by past asymptomatic subjects” value in assay [1] was 3/33.

On to SDMWQALLAGKSGVK [p25], for which, in assay [1], the “Donors recognizing peptides recognized solely by past asymptomatic subjects” value is on record as 3/33 and the “Human immunoreactive” value is given as “at least one IGRA + donor”.

PDYVLNAVNHIRYKP [p14]: the “Highly antigenic / highly reactive peptide in the human cohort” value in assay [1] is reported as “highly reactive; also recorded: highly antigenic”. Also, in assay [2], the “SFU, Mouse 1/3” value turned out to be 157; the “SFU, Mouse 2/3” value was 371; the “SFU, Mouse 3/3” value is recorded as 11; the “SI (stimulation index), Mouse 1/3” value came out at 7.94. In assay [2], the “SI (stimulation index), Mouse 2/3” value is 20.21; the “SI (stimulation index), Mouse 3/3” value was 1.42; the “# of mice responding” value was found to be 2.

Regarding DGRLEQLNSQNQQLQ [p33], in assay [1], the “Donors recognizing peptides recognized only within group C” value is on record as “single”, the “Donors recognizing peptides recognized solely by past asymptomatic subjects” value is listed as 1/33 and the “Human immunoreactive” value was “at least one IGRA + donor”.

Regarding TGEIVKMINQAKQSIYVQG [p32], the “Human immunoreactive” value in assay [1] is “at least one IGRA + donor”. Also, in assay [2], the “SFU, Mouse 1/3” value was found to be 64; the “SFU, Mouse 2/3” value came out at 70; the “SFU, Mouse 3/3” value stood at 28; the “SI (stimulation index), Mouse 1/3” value worked out at 3.82. Besides, in assay [2], the “SI (stimulation index), Mouse 2/3” value worked out at 4.62; the “SI (stimulation index), Mouse 3/3” value is on record as 2.11; the “# of mice responding” value turned out to be 2.
